Test results reported in US6818203B2, “Use of perfluoroalkyl-containing metal complexes as contrast media in MR-imaging for visualization of plaque, tumors and necroses” (Schering Aktiengesellschaft, priority 2000, dated 2004).

Key:
[1] = in vivo; cited from earlier work
myocardial infarction = assay: infarction visualization (MRT) after intravenous administration in rats with acutely induced myocardial infarction; format: in vivo; settings: 24 hours after i.v. 100 μmol of Gd/kg
Text: The successful induction of an acute myocardial infarction was confirmed by means of NBT-staining.

[2] = critical micelle formation concentration (CMC) by tensiometry; format: physicochemical
Method: In aqueous systems, these amphiphilic molecules show the properties that are characteristic of standard surfactants (such as, e.g., sodium dodecylsulfate, SDS). They thus reduce the surface tension of water. By tensiometry, the so-called CMC (critical micelle formation concentration in mol/l) can be determined. In this respect, the surface tension is determined based on the concentration of the substance to be measured. The CMC can be calculated from the plot of the surface tension function (c) that is obtained. The critical micelle formation concentration of the compounds according to the invention must be <10^−3 mol/l, preferably <10^−4 mol/l.
(§1) Both the determination of the CMC and the photon correlation spectroscopy are described in H.-D. Dörfler, “Grenzflächen- und Kolloidchemie [Interface and Colloid Chemistry],” Weinheim, New York, Basel, Cambridge, Tokyo, VSH 1994.

iliac lymph nodes = assay: lymph node visualization (MRT) after intravenous administration in VX2-tumor-bearing rabbits; format: in vivo; settings: 200 μmol of Gd/kg i.v.
Method: The pictures of FIG. 6 show MR images of an iliac lymph node and of a primary tumor (VX2-tumor implanted i.m.) precontrast, 60 minutes and 20 hours after intravenous administration of 100 μmol of Gd/kg of body weight of metal complex I in rabbits. […] The enhancement in the healthy lymph node tissue was 382% at the time of 15 minutes p.i. and 419% at the time of 60 minutes p.i. […] The ratio of signal intensities of healthy lymph node tissue to metastasis was 3.0 at the time of 15 minutes p.i. and 3.4 at the time of 60 minutes p.i. […] The enhancement in the healthy lymph node tissue was 246% at the time of 15 minutes p.i. and 282% at the time of 60 minutes p.i. […] The ratio of signal intensities of healthy lymph node tissue to metastasis was 2.5 at the time of 15 minutes p.i. and 1.7 at the time of 60 minutes p.i. […] The enhancement in the healthy lymph node tissue was 297% at the time of 10 minutes p.i. and 269% at the time of 60 minutes p.i. […] The ratio of signal intensities of healthy lymph node tissue to metastasis was 5.1 at the time of 10 minutes p.i. and 1.9 at the time of 60 minutes p.i. […] The enhancement in the healthy lymph node tissue was 195% at the time of 15 minutes p.i. and 233% at the time of 60 minutes p.i. […] The ratio of signal intensities of healthy lymph node tissue to metastasis was 1.9 at the time of 15 minutes p.i. and 1.8 at the time of 60 minutes p.i.

arteriosclerotic plaque = assay: MRT-visualization of arteriosclerotic plaque after intravenous administration; format: in vivo, Watanabe rabbits
Text: Based on the contrast between the plaque with strong signals and the healthy vessel wall with little or no signals, a diagnosis of the arteriosclerotic vessel wall changes was possible.
The localization of the plaque, especially in aortic arches and in vascular passages, was confirmed by means of Sudan-III-staining.
The localization of the plaque, especially in aortic arches as well as in vascular passages, was confirmed by means of Sudan-III-staining. Then, the MR-imaging of the agar-embedded preparation was again examined with a T1-weighted gradientecho sequence (MPRage; 1.5 T; TR 11.1 ms, TE 4.3 ms, 15° flip angle α; NA: 2; matrix: 213*256) and a spin-echo sequence (1.5 T; TR: 400 ms, TE: 15 ms; NA: 16; matrix: 256*256) (post mortem image).

[3] = system: primary tumor (VX2-tumor implanted i.m.); assay: tumor visualization (MRT) after intravenous administration in VX2-tumor-bearing rabbits; format: in vivo; settings: 200 μmol of Gd/kg i.v.
Method: The pictures of FIG. 6 show MR images of an iliac lymph node and of a primary tumor (VX2-tumor implanted i.m.) precontrast, 60 minutes and 20 hours after intravenous administration of 100 μmol of Gd/kg of body weight of metal complex I in rabbits. […]

[4] = hydrodynamic micelle diameter (2 Rh) by photon correlation spectroscopy (PCS); format: physicochemical
Text: The amphiphilic compounds according to the invention are combined in solution and are present as aggregates. The size (2 Rh) of such aggregates (e.g., micelles, rods, wafers, etc.) can be determined with the aid of […] (PCS).
As a second criterion, the hydrodynamic micelle diameter 2 Rh, which must be >1 nm, is therefore used. Those perfluoroalkyl-containing metal complexes according to the invention whose 2 RH is ≧3, quite especially preferably >4 nm, are especially suitable.
as §1

[5] = proton relaxivity in plasma (R^1), Minispec P 20; format: physicochemical; settings: 40° C., 0.47 tesla, bovine plasma
Method: As a third criterion, the proton-relaxivity in plasma (R^1) at 40° C. and a field strength of 0.47 tesla is used. The relaxivity, which is indicated in [l/mmol·s], is the quantitative measurement for the shortening of relaxation time T^1 of the protons. For the purpose according to the invention, the relaxivity must be as high as possible and >10 l/mmol·s, preferably >13 l/mmol·s, especially preferably >15 l/mmol·s.
Relaxivity R^1 [l/mmol·s] of the MR-contrast media according to the invention was determined with the Minispec P 20 device of the Bruker Company. The measurements were taken at 40° C. and a field strength of 0.47 tesla. Eight measuring points were recorded by each T1-sequence: 180°-TI-90°, inversion recovery. As a medium, bovine plasma of the Kraeber Company was used. The contrast medium concentrations [mmol/l] in the batches were between 0.30 and 1.16.

[6] = 24 hours after contrast medium administration

CMC (critical micelle formation concentration) [2] [mol/L] | 2 Rh (hydrodynamic micelle diameter) [4] [nm] | R^1 Plasma (relaxivity) [5] [mmol⁻¹ s⁻¹] | Compound | LD50 [1] | dose at which an action starts [1] [mmol/kg] | signal in the infarction area (T1-weighted spin-echo images) (myocardial infarction) | signal in healthy lymph node tissue (T1-weighted gradient-echo images) (iliac lymph nodes) | signal in the metastasis, late (iliac lymph nodes; [6]) | signal rise in healthy lymph node tissue, late (iliac lymph nodes; [6]) | signal in zones within the lymph node diagnosed as metastases (confirmed histologically) (iliac lymph nodes; early images) | signal in arteriosclerotic plaque (MR images of the aorta) (arteriosclerotic plaque; 35 minutes, 60 minutes and 24 hours after i.v. 10 μmol of Gd/kg) | signal in the arteriosclerotic plaque (MR images of the aorta) (arteriosclerotic plaque; 24 hours and 48 hours after i.v. 25 μmol of Gd/kg) | correlation of the aortic sections with strong signal rise and Sudan-III stained plaque (arteriosclerotic plaque; post mortem image of the agar-embedded preparation, 10 μmol of Gd/kg i.v.) | course of the enhancement of the primary tumor ([3]; 24 hours p.i.) | enhancement of the primary tumor (especially the periphery) ([3]; immediately after administration)
 |  |  | O=S(=O)([O-])c1ccc(-c2c3nc(c(-c4ccc(S(=O)(=O)[O-])cc4)c4ccc([nH]4)c(-c4ccc(S(=O)(=O)[O-])cc4)c4nc(c(-c5ccc(S(=O)(=O)[O-])cc5)c5ccc2[nH]5)C=C4)C=C3)cc1.[Mn+4] [Mn-TPPS, manganese-5,10,15,20-tetrakis(4-sulfonatophenyl)-porphyrin] | approximately 0.5 mmol/kg | 0.2 |  |  |  |  |  |  |  |  |  | 
2.5e-06 | 4.4 | 15.9 | CC(C(=O)NCC(=O)NCCCC[C@H](NC(=O)CO[C@H]1O[C@H](CO)[C@@H](O)[C@H](O)[C@@H]1O)C(=O)N1CCN(S(=O)(=O)C(F)(F)C(F)(F)C(F)(F)C(F)(F)C(F)(F)C(F)(F)C(F)(F)C(F)(F)F)CC1)N1CCN(CC(=O)[O-])CCN(CC(=O)[O-])CCN(CC(=O)[O-])CC1.[Gd+3] (stereo partly drawn) [metal complex XV, 6-N-[1,4,7-Tris(carboxylatomethyl)-1,4,7,10-tetraazacyclododecane-10-N-(pentanoyl-3-aza-4-oxo-5-methyl-5-yl)]-2-N-[1-O-α-D-carbonylmethyl-mannopyranose]-L-lysine-[1-(4-perfluorooctylsulfonyl)-piperazine]-amide, Gd complex] |  |  | strong signal rise | strong signal rise | considerable signal rise | reduced | without signal rise | strong signal rise | strong signal rise | excellent correlation | propagates out from the center of the tumor | considerable enhancement
